In patent publication US10759810B2 (AO “TATKHIMFARMPREPARATY”, priority 2016, dated 2020):
In brackets after ≈: the same amount, converted by molar mass.

Experiments:
[1] = tested on: Bacillus subtilis 168 (museum strain); test: MIC, serial dilutions in Mueller-Hinton broth; type: cell-based; conditions: inoculum 10^7 CFU/ml, gram-positive; for MIC: Bacillus subtilis, read-out: MIC, B. subtilis
Description: (§1) Measurement of antibacterial activity was carried out on the strains of Staphylococcus aureus ATCC 29213 (museum strain), Staphylococcus epidermidis (clinical isolate), Micrococcus luteus (clinical isolate), Bacillus subtilis 168 (museum strain), Escherichia coli ATCC 25922 (museum strain), Salmonella typhimurium TA100 (museum strain), Pseudomonas aeruginosa ATCC 27853 (museum strain). A comparative assessment of the spectrum of antibacterial action on reference strains and clinical isolates of gram-positive microorganisms was carried out using a micromethod for determining the minimum inhibitory concentration (MIC) using serial dilutions in Mueller-Hinton broth using 96-well sterile plates.
(§2) The first lowest concentration of the antibiotic (from a series of successive dilutions), where bacterial growth is not visually determined, is considered to be the minimum inhibitory concentration (MIC).
(§3) For the preparation of inoculum (infectious material used for artificial contamination), intended for the study of antibacterial activity, was used a pure daily culture of bacteria grown on a dense nutrient medium (agar LB medium). In a sterile isotonic solution of sodium chloride, a suspension of microorganisms was prepared, adjusting the inoculum density to 0.5 according to the McFarland standard (1.5·10^8 CFU/ml). Then, the resulting inoculum was diluted to a concentration of 10^7 CFU/ml with LB-broth. The inoculum was used for 15 minutes after preparation; the purity of the bacterial strains was monitored before each experiment.
(§4) 100 μl of Muller-Hinton broth was added to the wells of each plate; the test base was introduced into the first well at a concentration of 128 μg/ml in a volume of 100 μl and its concentration was adjusted to 0.25 μg/ml by consecutive two-fold dilution. […] Each preparation in the experiment was titrated three times. […] In addition, the purity of nutrient media and solvents was monitored. The plates were incubated in a thermostat at […] for 24 hours.
(§5) The growth of cultures was assessed visually, comparing the growth of microorganisms in the presence of test compounds with the growth of culture without them.

[2] = tested on: Escherichia coli ATCC 25922 (museum strain); test: MIC, serial dilutions in Mueller-Hinton broth; type: cell-based; conditions: inoculum 10^7 CFU/ml, gram-negative; for MIC: Escherichia coli, ATCC25922, read-out: MIC, E. coli
Description: as §1, §2, §3, §4, §5

[3] = tested on: Micrococcus luteus (clinical isolate); test: MIC, serial dilutions in Mueller-Hinton broth; type: cell-based; conditions: inoculum 10^7 CFU/ml, gram-positive; for MIC: Micrococcus luteus, read-out: MIC, M. luteus
Description: as §1, §2, §3, §4, §5

[4] = tested on: Pseudomonas aeruginosa ATCC 27853 (museum strain); test: MIC, serial dilutions in Mueller-Hinton broth; type: cell-based; conditions: inoculum 10^7 CFU/ml, gram-negative; for MIC: Pseudomonas aeruginosa, ATCC27853, read-out: MIC, P. aerugenosa
Description: as §1, §2, §3, §4, §5

[5] = tested on: Salmonella typhimurium TA100 (museum strain); test: MIC, serial dilutions in Mueller-Hinton broth; type: cell-based; conditions: inoculum 10^7 CFU/ml, gram-negative; for MIC: Salmonella enterica, TYPHIMURIUM, read-out: MIC, S. typhimurium
Description: as §1, §2, §3, §4, §5

[6] = tested on: Staphylococcus aureus ATCC 29213 (museum strain); test: MIC, serial dilutions in Mueller-Hinton broth; type: cell-based; conditions: inoculum 10^7 CFU/ml, gram-positive; for MIC: Staphylococcus aureus, ATCC29213, read-out: MIC, S. aureus
Description: as §1, §2, §3, §4, §5

[7] = tested on: Staphylococcus epidermidis (clinical isolate); test: MIC, serial dilutions in Mueller-Hinton broth; type: cell-based; conditions: inoculum 10^7 CFU/ml, gram-positive; for MIC: Staphylococcus epidermidis, read-out: MIC, S. epidermidis
Description: as §1, §2, §3, §4, §5

S. aureus MRSA 1053 = test: MIC on clinical strain; type: cell-based, Staphylococcus aureus; conditions: inoculum 10^7 CFU/ml
Description: as §1, §2, §3, §4, §5

S. aureus MRSA 1065 = test: MIC on clinical strain; type: cell-based, Staphylococcus aureus; conditions: inoculum 10^7 CFU/ml
Description: as §1, §2, §3, §4, §5

S. aureus MRSA 1130 = test: MIC on clinical strain; type: cell-based, Staphylococcus aureus; conditions: inoculum 10^7 CFU/ml
Description: as §1, §2, §3, §4, §5

S. aureus MRSA 1131 = test: MIC on clinical strain; type: cell-based, Staphylococcus aureus; conditions: inoculum 10^7 CFU/ml
Description: as §1, §2, §3, §4, §5

S. aureus MRSA 1143 = test: MIC on clinical strain; type: cell-based, Staphylococcus aureus; conditions: inoculum 10^7 CFU/ml
Description: as §1, §2, §3, §4, §5

S. aureus MRSA 1163 = test: MIC on clinical strain; type: cell-based, Staphylococcus aureus; conditions: inoculum 10^7 CFU/ml
Description: as §1, §2, §3, §4, §5

S. aureus MRSA 1168 = test: MIC on clinical strain; type: cell-based, Staphylococcus aureus; conditions: inoculum 10^7 CFU/ml
Description: as §1, §2, §3, §4, §5

S. aureus MRSA 1173 = test: MIC on clinical strain; type: cell-based, Staphylococcus aureus; conditions: inoculum 10^7 CFU/ml
Description: as §1, §2, §3, §4, §5

S. aureus MRSA 2020 = test: MIC on clinical strain; type: cell-based, Staphylococcus aureus; conditions: inoculum 10^7 CFU/ml
Description: as §1, §2, §3, §4, §5

S. aureus MRSA 967 = test: MIC on clinical strain; type: cell-based, Staphylococcus aureus; conditions: inoculum 10^7 CFU/ml
Description: as §1, §2, §3, §4, §5

S. aureus MRSA 981 = test: MIC on clinical strain; type: cell-based, Staphylococcus aureus; conditions: inoculum 10^7 CFU/ml
Description: as §1, §2, §3, §4, §5

S. aureus MRSA 983 = test: MIC on clinical strain; type: cell-based, Staphylococcus aureus; conditions: inoculum 10^7 CFU/ml
Description: as §1, §2, §3, §4, §5

Row | Structure (SMILES) | MIC, B. subtilis [1] [µg/mL] | MIC, E. coli [2] [µg/mL] | MIC, M. luteus [3] [µg/mL] | MIC, P. aerugenosa [4] [µg/mL] | MIC, S. typhimurium [5] [µg/mL] | MIC, S. aureus [6] [µg/mL] | MIC, S. epidermidis [7] [µg/mL] | also measured
1 | COc1c(N2C[C@@H]3CCCN[C@@H]3C2)c(F)cc2c(=O)c(C(=O)O)cn(C3CC3)c12 [Moxifloxacin, moxifloxacin, reference compound] | – | – | – | – | – | – | – | MIC [1]: < 2 µg/mL; MIC [2]: 2 µg/mL (≈ 4.98 µM); MIC [3]: 4 µg/mL (≈ 9.96 µM); MIC [4]: 8 µg/mL (≈ 19.9 µM); MIC [5]: 0.5 µg/mL (≈ 1.25 µM); MIC [6]: 1 µg/mL (≈ 2.49 µM); MIC [7]: 4 µg/mL (≈ 9.96 µM)
2 | Cc1ncc(CN2CCN(c3cc4c(cc3F)c(=O)c(C(=O)O)cn4C3CC3)CC2)c2c1OCOC2 [Compound I-12, 1-cyclopropyl-6-fluoro-7-(4-((8-methyl-4H-[1,3]dioxino [4,5-c]pyridine-5-yl)methyl)piperazine-1-yl)-4-oxo-1,4-dihydroquinolin-3-carboxylic acid] | – | – | – | – | – | – | – | MIC [1]: < 2 µg/mL; MIC [2]: 8 µg/mL (≈ 16.2 µM); MIC [3]: 16 µg/mL (≈ 32.4 µM); MIC [4]: 32 µg/mL (≈ 64.7 µM); MIC [5]: 0.5 µg/mL (≈ 1.01 µM); MIC [6]: 1 µg/mL (≈ 2.02 µM); MIC [7]: 0.5 µg/mL (≈ 1.01 µM)
3 | Cc1ncc(CN2CCN(c3cc4c(cc3F)c(=O)c(C(=O)O)cn4C3CC3)CC2)c2c1OC(C)(C)OC2 [Compound I-1, 1-cyclopropyl-6-fluoro-7-(4-((2,2,8-trimethyl-4H-[1,3]dioxino-[4,5-c]pyridine-5-yl)methyl)piperazinyl)-4-oxo-1,4-dihydroquinolin-3-carboxylic acid] | <2 | 64 (≈ 122 µM) | 32 (≈ 61.2 µM) | >64 | 4 (≈ 7.65 µM) | 32 (≈ 61.2 µM) | 16 (≈ 30.6 µM) | –
4 | CCCCCCCCC1OCc2c(CN3CCN(c4cc5c(cc4F)c(=O)c(C(=O)O)cn5C4CC4)CC3)cnc(C)c2O1 (stereo not shown) [Compound I-8, 1-cyclopropyl-6-fluoro-7-(4-((8-methyl-2-octyl-4H-[1,3]dioxino-[4,5-c]pyridine-5-yl)methyl)piperazinyl)-4-oxo-1,4-dihydroquinolin-3-carboxylic acid] | <2 | >64 | 64 (≈ 105 µM) | >64 | 4 (≈ 6.59 µM) | 32 (≈ 52.7 µM) | 64 (≈ 105 µM) | –
5 | Cc1ncc(CSCCN2CCN(c3cc4c(cc3F)c(=O)c(C(=O)O)cn4C3CC3)CC2)c(CO)c1O [Compound I-5, 1-cyclopropyl-6-fluoro-7-(4-(2-(((5-hydroxy-4-hydroxymethyl-6-methylpyridine-3-yl)methyl)sulfanyl)ethyl)piperazinyl)-4-oxo-1,4-dihydroquinolin-3-carboxylic acid] | <2 | 8 (≈ 14.7 µM) | 8 (≈ 14.7 µM) | 32 (≈ 59 µM) | 4 (≈ 7.37 µM) | 8 (≈ 14.7 µM) | 8 (≈ 14.7 µM) | –
6 | CO/N=C(\C(=O)N[C@@H]1C(=O)N2C(C(=O)O)=C(CSc3nc(=O)c(O)nn3C)CS[C@H]12)c1csc(N)n1 [Ceftriaxon, ceftriaxone] | – | – | – | – | – | – | – | The value of the MIC, S. aureus MRSA 1053 (S. aureus MRSA 1053): >64 µg/mL; The value of the MIC, S. aureus MRSA 1065 (S. aureus MRSA 1065): >64 µg/mL; The value of the MIC, S. aureus MRSA 1130 (S. aureus MRSA 1130): >64 µg/mL; The value of the MIC, S. aureus MRSA 1131 (S. aureus MRSA 1131): >64 µg/mL; The value of the MIC, S. aureus MRSA 1143 (S. aureus MRSA 1143): >64 µg/mL; The value of the MIC, S. aureus MRSA 1163 (S. aureus MRSA 1163): >64 µg/mL; The value of the MIC, S. aureus MRSA 1168 (S. aureus MRSA 1168): 0.5 µg/mL; The value of the MIC, S. aureus MRSA 1173 (S. aureus MRSA 1173): >64 µg/mL; The value of the MIC, S. aureus MRSA 2020 (S. aureus MRSA 2020): 2 µg/mL; The value of the MIC, S. aureus MRSA 967 (S. aureus MRSA 967): >64 µg/mL; The value of the MIC, S. aureus MRSA 981 (S. aureus MRSA 981): >64 µg/mL; The value of the MIC, S. aureus MRSA 983 (S. aureus MRSA 983): >64 µg/mL
7 | Cc1ncc(CN2CCN(c3cc4c(cc3F)c(=O)c(C(=O)O)cn4C3CC3)CC2)c2c1OC(C)OC2 (stereo not shown) [Compound I-6, 1-cyclopropyl-6-fluoro-7-(4-((2,8-dimethyl-4H-[1,3]dioxino-[4,5-c]pyridine-5-yl)methyl)piperazinyl)-4-oxo-1,4-dihydroquinolin-3-carboxylic acid] | <2 | >64 | 8 (≈ 15.7 µM) | >64 | 4 (≈ 7.87 µM) | 8 (≈ 15.7 µM) | 8 (≈ 15.7 µM) | –
8 | CCCC1OCc2c(CN3CCN(c4cc5c(cc4F)c(=O)c(C(=O)O)cn5C4CC4)CC3)cnc(C)c2O1 (stereo not shown) [Compound I-7, 1-cyclopropyl-6-fluoro-7-(4-((8-methyl-2-propyl-4H-[1,3]dioxino-[4,5-c]pyridine-5-yl)methyl)piperazinyl)-4-oxo-1,4-dihydroquinolin-3-carboxylic acid] | <2 | >64 | 64 (≈ 119 µM) | >64 | 4 (≈ 7.45 µM) | 64 (≈ 119 µM) | 64 (≈ 119 µM) | –

The next lines start with results.

Row | MIC, B. subtilis [1] [µg/mL] | MIC, E. coli [2] [µg/mL] | MIC, M. luteus [3] [µg/mL] | MIC, P. aerugenosa [4] [µg/mL] | MIC, S. typhimurium [5] [µg/mL] | MIC, S. aureus [6] [µg/mL] | MIC, S. epidermidis [7] [µg/mL] | Structure (SMILES) | also measured
9 | <2 | 64 (≈ 110 µM) | 8 (≈ 13.7 µM) | >64 | 4 (≈ 6.86 µM) | 16 (≈ 27.5 µM) | 32 (≈ 54.9 µM) | Cc1ncc(CSCCN2CCN(c3cc4c(cc3F)c(=O)c(C(=O)O)cn4C3CC3)CC2)c2c1OC(C)(C)OC2 [Compound I-4, 1-cyclopropyl-6-fluoro-7-(4-(2-(((2,2,8-trimethyl-4H-[1,3]dioxino-[4,5-c]pyridine-5-yl)methyl)sulfanyl)ethyl)piperazinyl)-4-oxo-1,4-dihydroquinolin-3-carboxylic acid] | –
10 | <2 | 64 (≈ 116 µM) | 8 (≈ 14.5 µM) | >64 | 4 (≈ 7.24 µM) | 8 (≈ 14.5 µM) | 8 (≈ 14.5 µM) | Cc1nc(CN2CCN(c3cc4c(cc3F)c(=O)c(C(=O)O)cn4C3CC3)CC2)c(CO)c2c1OC(C)(C)OC2 [Compound I-10, 1-cyclopropyl-6-fluoro-7-(4-((5-hydroxymethyl-2,2,8-trimethyl-4H-[1,3]dioxino [4,5-c]pyridine-6-yl)methyl)piperazinyl)-4-oxo-1,4-dihydroquinolin-3-carboxylic acid] | –
11 | <2 | 64 (≈ 125 µM) | 32 (≈ 62.4 µM) | >64 | 4 (≈ 7.8 µM) | 64 (≈ 125 µM) | 32 (≈ 62.4 µM) | Cc1nc(CN2CCN(c3cc4c(cc3F)c(=O)c(C(=O)O)cn4C3CC3)CC2)c(CO)c(CO)c1O [Compound I-11, 1-cyclopropyl-6-fluoro-7-(4-((5-hydroxy-3,4-bis(hydroxymethyl)-6-methylpyridine-2-yl)methyl)piperazinyl)-4-oxo-1,4-dihydroquinolin-3-carboxylic acid] | –
